This is an account of results in ChEMBL document CHEMBL5550201, “Discovery of a Highly Potent, Selective and Efficacious USP7 Degrader for the Treatment of Acute Lymphoblastic Leukemia” (J Med Chem, 2024).

The structures appear in SMILES notation. Activity calls are given as the source filed them. The rule behind the calls is not given here.

For test [1], the system named is RS4-11. Put plainly: Induction of apoptosis in human RS4-11 cells assessed as necrotic cells at 1 nM measured after 72 hrs by FITC-annexin-V/PI analysis (reference value: 0%). Format: functional.
Test [2] concerns the target T1, von Hippel-Lindau disease tumor suppressor/Ubiquitin carboxyl-terminal hydrolase 7 (Homo sapiens, UniProt Q93009+P40337). Briefly: PROTACT activity at USP7/VHL in human RS4;11 cells assessed as selective USP7 degradation at 100 nM measured after 4 hrs by proteomics analysis. Format: cell-based.
In test [3] the test system is RS4-11. Briefly: Antitumor activity against human RS4-11 cells xenografted in NOD/SCID mouse model assessed as tumor growth inhibition at 20 mg/kg, ip daily measured after 18 days relative to control. Type of test: functional. As to conditions: RS4-11, 432 h, time 18 day, read-out: TGI. (In xenograft studies the graft and the host belong to different species.)
For test [4], the system named is RS4-11. Briefly: Upregulation of p21 protein expression in human RS4-11 cells measured after 12 hrs incubation by Western blot analysis. Type of test: functional, cell-based. The note with it: dose 10-100 nM. A general note: In western blotting, separated proteins are transferred to a membrane and probed.
Test [5] addresses T1, von Hippel-Lindau disease tumor suppressor/Ubiquitin carboxyl-terminal hydrolase 7. Put plainly: PROTACT activity at USP7/VHL in human RS4;11 cells assessed as protein degradation at 10 nM measured after 6 hrs in presence of NEDD8-activating enzyme inhibitor […] by Western blot analysis. Type of test: cell-based.
For test [6] the target is unchanged. Briefly: PROTACT activity at USP7/VHL in human REH cells assessed as protein degradation at 10 to 100 nM measured after 12 hrs by Western blot analysis. Type of test: cell-based. As to conditions: dose 10-100 nM.
Test [7] has as its system RS4-11. Put plainly: Induction of apoptosis in human RS4-11 cells assessed as early apoptotic cells at 10 nM measured after 72 hrs by FITC-annexin-V/PI analysis (reference value: 5.36%). Format: functional.
Test [8] deals with RS4-11. Briefly: Antitumor activity against human RS4-11 cells xenografted in NOD/SCID mouse model assessed as tumor growth inhibition at 5 mg/kg, ip daily measured after 18 days relative to control. Type of test: functional. The note with it: RS4-11, 432 h, time 18 day, read-out: TGI.
For test [9], the target named is T1, von Hippel-Lindau disease tumor suppressor/Ubiquitin carboxyl-terminal hydrolase 7. Put plainly: PROTACT activity at USP7/VHL in human OCI-Ly10 cells assessed as protein degradation at 10 to 100 nM measured after 12 hrs by Western blot analysis. As to conditions: dose 10-100 nM. Type of test: cell-based.
Test [10] relates to RS4-11. Put plainly: Induction of cell cycle arrest in human RS4-11 cells assessed as assessed as total apoptotic cells at 1 nM measured after 12 hrs by flow cytometry relative to control. Format: functional. (In flow cytometry, cells or beads pass a laser one at a time.)

T1 sequence (P40337 whole entry, looked up): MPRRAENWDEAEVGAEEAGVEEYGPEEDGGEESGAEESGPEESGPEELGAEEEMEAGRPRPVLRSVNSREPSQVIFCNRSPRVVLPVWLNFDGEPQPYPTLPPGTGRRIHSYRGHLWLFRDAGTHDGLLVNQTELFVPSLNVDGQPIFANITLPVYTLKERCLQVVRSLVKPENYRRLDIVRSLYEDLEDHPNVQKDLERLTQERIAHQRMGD
T1 sequence (Q93009 whole entry, looked up): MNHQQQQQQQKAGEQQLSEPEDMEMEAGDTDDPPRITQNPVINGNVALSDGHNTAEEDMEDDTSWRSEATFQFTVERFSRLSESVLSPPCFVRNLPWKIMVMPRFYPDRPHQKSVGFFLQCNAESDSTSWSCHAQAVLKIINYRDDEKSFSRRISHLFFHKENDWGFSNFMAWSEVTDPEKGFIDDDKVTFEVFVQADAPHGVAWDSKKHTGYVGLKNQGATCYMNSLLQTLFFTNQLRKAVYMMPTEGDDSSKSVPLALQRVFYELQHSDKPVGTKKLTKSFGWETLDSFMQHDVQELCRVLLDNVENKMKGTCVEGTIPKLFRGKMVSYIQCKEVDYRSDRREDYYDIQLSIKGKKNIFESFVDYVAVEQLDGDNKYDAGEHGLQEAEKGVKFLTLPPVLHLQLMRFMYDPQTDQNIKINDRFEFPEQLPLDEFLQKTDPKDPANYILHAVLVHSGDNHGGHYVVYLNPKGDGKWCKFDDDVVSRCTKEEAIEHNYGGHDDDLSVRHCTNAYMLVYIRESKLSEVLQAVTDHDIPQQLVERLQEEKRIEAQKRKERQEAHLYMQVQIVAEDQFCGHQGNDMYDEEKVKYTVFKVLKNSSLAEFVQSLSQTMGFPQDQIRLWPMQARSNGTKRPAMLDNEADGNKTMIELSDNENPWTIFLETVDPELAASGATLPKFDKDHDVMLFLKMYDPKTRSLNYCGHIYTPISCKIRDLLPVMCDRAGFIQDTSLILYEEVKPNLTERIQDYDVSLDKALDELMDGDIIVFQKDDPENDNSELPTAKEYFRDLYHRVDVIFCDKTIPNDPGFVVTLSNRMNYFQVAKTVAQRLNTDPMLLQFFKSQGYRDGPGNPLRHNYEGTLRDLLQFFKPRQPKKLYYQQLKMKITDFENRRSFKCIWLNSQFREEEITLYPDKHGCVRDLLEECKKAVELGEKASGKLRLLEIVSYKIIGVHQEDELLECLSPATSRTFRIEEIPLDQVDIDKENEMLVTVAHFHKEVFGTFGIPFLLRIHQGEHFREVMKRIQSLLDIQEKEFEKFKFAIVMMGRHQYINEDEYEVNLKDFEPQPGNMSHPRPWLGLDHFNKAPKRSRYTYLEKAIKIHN

For `Cc1ncsc1-c1ccc([C@H](C)NC(=O)[C@@H]2C[C@@H](O)CN2C(=O)[C@@H](c2cc(N3CCN(Cc4ccc(-c5c6ncn(CC7(O)CCN(C(=O)C[C@@H](C)c8ccccc8)CC7)c(=O)c6nn5C)cc4)CC3)no2)C(C)C)cc1`, the Activity was 0% in the test with RS4-11 [1], “Dose-Dependent Effect” in the test on RS4-11 [4], 17.36% in the test with RS4-11 [7] and 12.98% in the test with RS4-11 [10]. For the same molecule, the result in [2], in test [6] and in test [9] was Active. Also, the inhibition in vivo at 20 mg/kg in the test with RS4-11 [3] is 78.7%. Further, the outcome in [5] was inactive. Moreover, in the test on RS4-11 [8], the inhibition in vivo at 5 mg/kg amounted to 64.7%.
